# Patent US20060183733A1, “Treating microvasculature diseases with acetyl cholinesterase inhibitors” (priority 2005, published 2006)
# “And” between values parts separate entries of the source, which are not always exact repeats. Equal values may be shown once. “Also recorded” adds a separate entry of the source.
# Tests used:
# [1] = system: patients with diabetic polyneuropathy; format: in vivo, human; conditions: drug stopped after initial improvement
# From the text: The symptoms of motor and sensory loss of diabetic polyneuropathy are ameliorated by acetylcholinesterase inhibitions by increasing concentration of acetylcholine, the principle neurotransmitter of the parasympathetic nervous system. By augmenting the trophic input of nerves of parasympathic nervous system; pain and dyserethesia are diminished and weakness/atrophy of muscles are diminished. The clinical observation in non-Alzheimer's patients is an improvement in motor and sensory function following treatment with effective doses of an acetylcholinesterase inhibitor. Improved blood flow within the microvascular circulation supplying the vasovasorum of the nerves produces the beneficial effect. By restoring blood flow to the vasovasorum of the nerves ischemic pain is relieved and normal function of the nerve is allowed to occur. The process of vasodilatation of the microvascular circulation is mediated through both neuronal and non-neuronal acetylcholine receptors stimulation by acetylcholine. Enhancement in acetylcholine levels is effected through treatment with acetylcholinesterase inhibitors.
# The physiologic shift favoring vasoconstriction that is associated with diabetes is reversed following administration of an acetylcholinesterase inhibitor allowing perfusion of the microvasculature, restoring blood flow to ischemic motor and sensory nerves damaged by the effects of diabetes.
# [2] = system: patients with Parkinson's disease; conditions: donepizil decreased from 10 mg to 5 mg daily
# [3] = system: patients with myofascial pain / fibromyalgia; test: Patient case histories: fibromyalgia / myofascial pain syndrome; format: in vivo, human; conditions: donepizil 5 mg daily
# From the text: The present invention provides a method for treating fibromyalgia and myofascial pain syndrome by increasing tissue levels of acetylcholine. Acetylcholine is the neurotransmitter of the parasympathic nervous system. The inventive method increases the relative amount of parasympathetic transmission and thereby facilitates resolution of the pain areas and diminishes the need for narcotics and polypharmacy. The reduction in the use of narcotics, NSAIDs, and tricyclic antidepressants and other medications used for pain having their deleterious side effects is a major benefit. By administration of acetyl cholinesterase inhibitor, the relative concentrations of acetylcholine are increased and available to propagate the impulses of the parasympathic nervous systems and within the non-neuronal acetylcholine receptors diminishing pain and spasms. […] The influence of non-neuronal acetylcholine receptors affected by enhanced levels of acetylcholine produces a reduction in pro-inflammatory mediators and increased blood flow to the nerve fibers involved in pain transmission. The net effect is a reduction in inflammation and improved blood flow to the vasovasorum of the affected nerves reducing the painful sensations.
# [4] = system: patients with chronic renal insufficiency; test: Patient case histories: chronic renal insufficiency (serum creatinine, BUN); format: in vivo, human
# From the text: To postpone or avoid the sequelae of chronic renal insufficiency, treatment with acetylcholinesterase inhibitors increase the concentration of acetycholine available to promote blood flow to the renal cortex preventing loss of nephrons and allowing existing renal parenchyma to provide the vital function of the kidney. Just as parasympathetic outflow provide homeostatic neural input to the elimination of function of the intestine, the same parasympathetic innervation provides vasodilatation of the small arterioles supplying the cortex of the kidneys allowing for optimal functioning.
# [5] = system: patients with phantom pain; test: Patient case histories: phantom pain following amputation; format: in vivo, human; conditions: donepizil 5 mg daily
# From the text: The present invention further provides a method of treating phantom pain following amputation in both upper and lower extremities. “Phantom pain” is a phenomenon described following amputation of either an upper or lower extremity. The sensation is common following amputation and present with varying degrees of discomfort and debility. A patient with phantom pain is typically treated with antidepressants, Neurontin® (gabapeninand) narcotics to a varying degree. The use of acetylcholinesterase inhibitors decreases the need for narcotics and generally eliminates the need for poly pharmacy improving pain, enhancing wound healing and improved sleep pattern in amputee patients. The dose of acetylcholinesterase inhibitor is titrated to GI (gastrointestinal) tolerance with bowel movement consistency and frequency the determining factors. Treatment with acetylcholinesterase inhibitor increases the available acetylcholine which is the neurotransmitter responsible for activation of the parasysmpathic nervous system appear responsible for Noxious symptoms of phantom pain for discomfort. The present invention provides a method of treating phantom pain associated with amputation of either upper or lower extremity.
# [6] = system: patients with urinary retention; test: Patient case histories: urinary retention (voiding trials, post void residuals)
# [7] = system: patients with peripheral vascular disease and diabetes mellitus; test: Patient case histories: microvascular disease / vascular insufficiency; format: in vivo, human; conditions: for side effects: donepizil 5-10 mg daily
# From the text: In summary, vascular insufficiency from diabetes is associated with compromise of the microvascular circulation. Treatment with an effective dose of an acetylcholinesterase inhibitor raises the relative concentration of acetylcholine promoting vasodilitation of the microcirculation (end arterioles) through stimulation of neuronal and non-neuronal acetylcholine receptors in the intima of the blood vessels. The beneficial effects of promoting vasodilitation and enhanced tissue perfusion correcting the dystrophic changes and alleviating ischemic pain and ulcers is readily apparent in this series of patients.
# The present invention provides a method for the medical management of peripheral vascular disease. The management of peripheral vascular disease with acetylcholinesterase inhibitor addresses the central dilemma in vascular perfusion of the lower extremities. By increasing the relative concentration of acetylcholine, the parasympthetic nervous system is enhanced, improving blood flow at the tissue level by relaxation of the small end arterioles and improving perfusion therefore decreasing vascular edema, enhancing resolution of trohpic ulcers and alleviating rest pain and claudication complaints. The parasympathetic nervous system controls vascular beds in the small arterioles and by increasing the available acetylcholine, dilatation occurs and blood flow improves. By treatment with acetylcholinesterase inhibitors the end results in improved vascular blood supply, decreased congestion at the small arterioles level and improved blood supply. This is particularly necessary in diabetic patients. The presence of non-neuronal acetylcholine receptors with the intima of blood vessels at the microvascular level represents a second physiologic mechanism whereby dilatation of small blood vessels is facilitated by the use of an acetylcholinesterase inhibitor. This latter mechanism owing to the sensitive nature of the cholinesterases associated with the non neuronal acetylcholine system provides sustained cholinergic activity impacting the microvascular circulation and improving perfusion at the critical end arteriole-capillary-venule level.
compound,measurement,setting,value
"COc1cc2c(cc1OC)C(=O)C(CC1CCN(Cc3ccccc3)CC1)C2 (centres unmarked) [donepizil, 1-benzyl-4->(5,6-dimethoxy-1-indanon)-2-yl methylpiperidine]",course after the drug was withdrawn or lapsed,[1],progressive decline in their ability and strength over the next 7-10 days
same,course after dose reduction,[2],notable deterioration in their motor function and a return of Parkinsonian symptoms
same,"clinical outcome (pain, narcotic use)",[3],able to eliminate their use of long acting; also recorded: decreased pain complaints in their neck; also recorded: controlled without the use of narcotics or NSAID's; also recorded: improvement in their back pain complaints; also recorded: pain complaints were significantly reduced over a four-week period; also recorded: no recurrence of their back pain or leg cramps; also recorded: no recurrence of cramps
same,side effects,[3],no reported GI upset or diarrhea; also recorded: well tolerated; also recorded: no nausea or diarrhea
same,serum creatinine,"[4]; donepizil 5 mg daily one month then 10 mg daily one month, before treatment 1.8",0.8
same,serum creatinine,"[4]; donepizil 5 mg one week then 10 mg daily, two weeks of treatment, 5.5 on admission, on hemodialysis (Parkinson's patient)",4.2
same,side effects,[4]; donepizil 5 mg orally daily,no untoward side effects; also recorded: no evidence of metabolic acidosis or hyperkalemia; also recorded: no adverse side effects
same,serum creatinine,"[4]; donepizil 5 mg orally daily one month after switch from galantamine, 1.8 before any treatment",1.0
same,BUN (blood urea nitrogen),"[4]; donepizil 5 mg orally daily one month after switch from galantamine, 32 before any treatment",14
same,serum creatinine,"[4]; donepizil 5 mg orally daily, 4 weeks/one month, before treatment 1.7, 1.8, 1.4, 1.6, 1.7",1.0 and 1.4 and 1.1 and 1.6 and 0.9
same,serum creatinine,"[4]; donepizil 5 mg orally daily, about 6 weeks, before treatment b104 1.4, b106 1.8",1.0 and 1.1
same,BUN (blood urea nitrogen),"[4]; donepizil 5 mg orally daily, about 6 weeks, before treatment b104 37, b106 30",21 and 19
same,serum creatinine,"[4]; donepizil 5 mg orally daily, three weeks, before treatment 2.8, on lisinopril",1.4
same,BUN (blood urea nitrogen),"[4]; donepizil 5 mg orally daily, three weeks, before treatment 39",26
same,serum creatinine,"[4]; donepizil 5 mg orally daily, two to three months, before treatment 1.7, 1.8, 1.7",1.1 and 0.9 and 1.2
same,BUN (blood urea nitrogen),"[4]; donepizil 5 mg orally daily, two to three months, before treatment b96 48, b110 35",20 and 19
same,BUN (blood urea nitrogen),"[4]; donepizil 5 mg orally daily, two weeks, before treatment 30",22
same,serum creatinine,"[4]; donepizil 5 mg orally daily, up to two weeks, before treatment b100 1.6, b106 1.8",1.3
same,serum creatinine,"[4]; donepizil 10 mg daily continued for the next month, 5.5 on admission, hemodialysis discontinued",2.1
same,"clinical outcome (phantom pain, sleep)",[5],dramatic improvement in here phantom discomfort; also recorded: prompt improvement in their pain control; also recorded: phantom pain diminished to the point they no longer required Oxycotin®; also recorded: notable improvement in leg discomfort; also recorded: much improved phantom discomfort and improved sleep; also recorded: no symptoms of vascular insufficiency in their contralateral extremity
same,post void residuals (PVR's),[6]; donepizil 5 mg orally daily with Detrol LA 2 mg orally daily,less than 100 cc
same,voiding trial,"[6]; donepizil 5 mg orally daily, 24-48 hours or more before the trial",able to void without incident; also recorded: successful
same,"clinical outcome (vascular edema, ulcers, pain, foot temperature)","[7]; donepizil 5 mg daily, 2 weeks to >1 year, single patients, listed as donepezil",the heel ulcer completely resolved
same,side effects,[7],no diarrhea or ulcer symptoms; also recorded: No serious untoward side effects were noted; also recorded: able to tolerate this treatment for the next 6 months; also recorded: No deleterious side effects such a diarrhea or acid reflux were noted; also recorded: no diarrhea or symptoms of gastrointestinal reflux; also recorded: without any untoward side effects; also recorded: without deleterious side affects such a diarrhea or acid reflux; also recorded: absence of any adverse side effects
same,side effects,[7]; listed as donepezil,without nausea/vomiting or diarrhea symptoms
same,"clinical outcome (ulcers, edema, phantom discomfort)","[7]; donepizil increased to 10 mg daily, additional one month (a person)",near complete healing of the leg ulcers and complete resolution of their edema
